In article PMC8580252, “Parasitic nematode fatty acid- and retinol-binding proteins compromise host immunity by interfering with host lipid signaling pathways” (PLoS Pathogens, 2021) one finds Kd data, which are given here for 1 compound.

This assay addresses T1, Sc-FAR-2 (Steinernema carpocapsae, UniProt A0A4U5NI02).
T1 construct: gene L596_016036; mature protein (signal peptide removed), N-terminal His6 tag cut off with TEV protease, E. coli BL21-CodonPlus, about 20 kDa family
Briefly: fluorescence titration, one-site fit. The class given is binding.

SMILES strings stand for the structures. pKd: −log10 of the molar value.

T1 sequence (A0A4U5NI02 entry or part of it): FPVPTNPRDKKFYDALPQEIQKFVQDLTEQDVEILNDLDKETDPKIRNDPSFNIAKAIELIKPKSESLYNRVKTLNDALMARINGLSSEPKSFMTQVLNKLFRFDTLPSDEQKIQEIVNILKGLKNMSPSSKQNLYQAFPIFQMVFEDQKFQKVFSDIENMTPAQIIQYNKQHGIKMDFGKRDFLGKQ

The term pKd denotes the negative decadic logarithm of the Kd, by convention in mol/L. Low values mean a high Kd, high ones a low Kd. Consider `CN(C)c1cccc2c(S(=O)(=O)NCCCCCCCCCCC(=O)O)cccc12` [DAUDA], for which the pKd is 4.66.
